Several values for one entry are separate records, joined by “and”; a condition that tells them apart may be missing. Equal entries are not always repeated. Where two headings read alike, the source gives them in different places.
Key:
[1] = test system: Bacillus subtilis 1904-E; experiment: Bacterial growth inhibition assay (microdilution, OD 560 nm), MIC; type: cell-based; settings: read-out: B. subtilis MIC
Protocol: (§1) The in vitro antibacterial activities of the synthesized compounds were examined against E. coli and B. subtilis. Bacteria were incubated in culture media with varying concentrations of the examined compound and the antibacterial properties were determined by observation of the optical density at 560 nm (bacteriostatic activity) and by the Resazurin cell viability assay (bactericidal activity). The corresponding minimal bactericidal concentration (MBC) and minimum inhibitory concentration (MIC) values that were obtained are summarized in Table 1 (please refer to Table S1 for MIC and MBC values in μM). Two bacterial strains were used in the antibacterial assays: Escherichia coli DH5α as a Gram-negative model and Bacillus subtilis 1904-E as a Gram-positive model. Both bacterial strains were donated to our laboratory and can be provided on request by contacting the corresponding authors. Both bacterial strains were incubated at 37 °C and the pre-inoculum incubation time was of 24 h. Liquid Luria-Bertani (LB) medium was used for E. coli DH5α and nutrient broth (NB) for B. subtilis. The bacteria cell bank suspensions were thawed and inoculated in the appropriate liquid broth for 24 h at 37 °C with mild agitation. A dilution from these culture solutions was used for the following tests, corresponding to an inoculum of 1 × 10^7 CFU/mL. Stock solutions of all the tested compounds were prepared in DMSO at a concentration of 100 mg/mL, aliquoted, and stored at −20 °C. (A) Bacterial growth inhibition assay: Conditions here described are for testing 6 different concentrations of the compounds, with triplicates of each condition. Therefore, 4 compounds were tested per plate. An adapted version of the microdilution method was used. Firstly, the imidazole derivatives were dissolved in the corresponding broth at 2× the highest tested concentration. Then, 100 μL of the 2× solutions were added to the first (A) and second (B) row wells of a 96-well plate. In addition, 100 μL of liquid medium had been previously added to rows B to F. Subsequent dilutions at 1:2 are prepared in rows B to F, by withdrawal of 100 μL from the previous row (more concentrated) to the next row (half diluted), mixing well. Then, 100 μL were discarded from the last row (F). By now, there are 100 μL in each well, and 100 μL of bacterial suspension at 10^7 CFU/mL were added to each well. Then, the 96-well plates were incubated for 24 h at 37 °C under mild agitation. Bacterial growth was controlled both by visual observation of the turbidity in each well and by measuring the optical density (OD) at 560 nm at time 0 h and 24 h. Results are recorded as the lowest concentration of antimicrobial agent that inhibits visible growth of the bacteria, and were compared with the OD variation of a control culture containing E. coli or B. subtilis (+ control) and of solution of the tested compounds without bacteria (- control).

[2] = test system: Escherichia coli DH5α; experiment: as above; type: cell-based; settings: read-out: E. coli MIC
Protocol: as §1

[3] = test system: HEK-293 cells; experiment: Cell proliferation assay for cytotoxicity (MTT); type: cell-based, human; settings: 2 days of incubation
Protocol: Human embryonic kidney cells, HEK-293, were chosen as a cell model to evaluate the cytotoxicity of the compounds. The HEK-293 cells were incubated in the cell culture medium with varying concentrations of the examined compound and the impact of treatment was measured using the MTT cell viability assay.
Cell culture media for cytotoxicity studies were purchased from Gibco (Grand Island, NY, USA). Fetal bovine serum (FBS) was obtained from HyClone (UT, USA). Supplements and other chemicals not listed in this section were obtained from Sigma Chemical Co. (St. Louis, MO, USA). Plastics for cell culture were supplied by Thermo Scientific BioLite (Madrid, Spain). All tested compounds were dissolved in DMSO at a concentration of 10 mM and stored at −20 °C until use. HEK-293 cell lines were maintained in Dulbecco’s modified Eagle’s medium (DMEM) containing glucose (1 g/L), glutamine (2 mM), penicillin (50 μg/mL), streptomycin (50 μg/mL), and amphotericin B (1.25 μg/mL) supplemented with 10% FBS.
In 96-well plates, 3 × 10^3 HEK-293 cells per well were seeded and incubated with serial dilutions of the tested compounds (from 200 to 0.2 μM) to a total volume of 100 μL of their growth media. The 3-(4,5-dimethylthiazol-2-yl)-2,5-diphenyltetrazolium bromide (MTT; Sigma Chemical Co.) dye reduction assay in 96-well microplates was used, as previously described. After 2 days of incubation (37 °C, 5% CO2 in a humid atmosphere), 10 μL of MTT (5 mg/mL in phosphate-buffered saline, PBS) was added to each well, and the plate was incubated for a further 3 h (37 °C). The supernatant was discarded and replaced by 100 µL of DMSO to dissolve formazan crystals. The absorbance was then read at 540 nm by Multiskan^TM FC microplate reader. For all concentrations of compound, cell viability was expressed as the percentage of the ratio between the mean absorbance of treated cells and the mean absorbance of untreated cells. Three independent experiments were performed, and the IC50 values (i.e., concentration half inhibiting cell proliferation) were graphically determined using GraphPad Prism 4 software.

[4] = test system: E. coli and B. subtilis; experiment: MBC to MIC ratio (bactericidal vs bacteriostatic); type: cell-based; settings: from exact MBC and MIC values of Table 1
From the text: The Gram-positive cell wall is composed of a thick, multilayered peptidoglycan sheath outside of the cytoplasmic membrane, while the Gram-negative cell wall is composed of an outer membrane linked by lipoproteins to thin, mainly single-layered peptidoglycan. The peptidoglycan is located within the periplasmic space that is created between the outer and inner membranes. […] Compounds with MBC/MIC >4 are considered to be bacteriostatic. In all the cases in which we could obtain exact MBC and MIC values (Table 1, entries 2, 3, 8 and 9), their ratio was equal to or minor than four.

[5] = Solubility in media of the fluorescence studies; type: physicochemical; settings: water and 1/1 water/bacterial cell culture medium
Protocol: Fluorescence studies were carried out using MilliQ® water and 1/1 MilliQ® water/bacterial cell culture medium, because with the pure cell culture medium, a strong broad fluorescence emission band was observed precluding an accurate analysis. […] The corresponding CACs obtained in water and in the 1/1 mixture of water/bacterial cell culture medium by fluorescence are shown in Table 2.

[6] = 24 h, 37 °C, nutrient broth, minimum of three experiments
[7] = mode of at least three experiments
[8] = 24 h, 37 °C, LB medium, minimum of three experiments

## CCCCNC(=O)[C@H](C(C)C)n1ccnc1 [Compound 2a]
[1]; [6]
  MIC: > 2000 µg/mL
[1]; [7]
  MIC: > 9000 µM
[2]; [8]
  MIC: > 2000 µg/mL
[2]; [7]
  MIC: > 9000 µM
[3]; Homo sapiens, HEK293, 48 h
  IC50: > 45 µg/mL

## CCCCCCCCCCCCNC(=O)[C@@H](Cc1ccccc1)n1cc[n+](Cc2cccc(C[n+]3ccn([C@@H](Cc4ccccc4)C(=O)NCCCCCCCCCCCC)c3)c2)c1 [Compound 3c]
[1]; [6]
  MIC: 64 µg/mL
[1]; [7]
  MIC: 62 µM
[2]; [8]
  MIC: 2000 µg/mL
[2]; [7]
  MIC: 1990 µM
[3]
  IC50: < 36 µM
[3]; Homo sapiens, HEK293, 48 h
  IC50: 36 µM and 37 µg/mL
[4]
  bactericidal or bacteriostatic (MBC to MIC ratio equal to or less than four = bactericidal): true bactericidal activity
[5]
  solubility: solubility problems
other
  melting point: 60 °C

## CCCCNC(=O)[C@H](C(C)C)n1cc[n+](Cc2ccccc2)c1 [Compound 2b]
[1]; [6]
  MIC: > 1000 µg/mL
[1]; 24 h, mode of at least three experiments
  MIC: 2590 µM
[2]; [8]
  MIC: > 2000 µg/mL
[2]; [7]
  MIC: > 5000 µM
[3]; Homo sapiens, HEK293, 48 h
  IC50: > 79 µg/mL
other
  melting point: 33 °C

## CCCCCCCCCCCCNC(=O)[C@H](C(C)C)n1cc[n+](Cc2ccccc2)c1 [Compound 1b]
[1]; [6]
  MIC: 4 µg/mL
[1]; [7]
  MIC: 9 µM
[2]; [8]
  MIC: 128 µg/mL
[2]; [7]
  MIC: 288 µM
[3]; Homo sapiens, HEK293, 48 h
  IC50: 1.8 µM and 0.8 µg/mL
[4]
  bactericidal or bacteriostatic (MBC to MIC ratio equal to or less than four = bactericidal): true bactericidal activity

## CCCCCCCCCCCCNC(=O)[C@H](C(C)C)n1ccnc1 [Compound 1a]
[1]; [6]
  MIC: 16 µg/mL
[1]; [7]
  MIC: 48 µM
[2]; [8]
  MIC: > 2000 µg/mL
[2]; [7]
  MIC: > 6000 µM
[3]; Homo sapiens, HEK293, 48 h
  IC50: 9.6 µM and 3.2 µg/mL

## CCCCCCCCCCCCNC(=O)[C@H](Cc1ccccc1)n1ccnc1 [Compound 3a]
[1]; [6]
  MIC: 16 µg/mL
[1]; [7]
  MIC: 42 µM
[2]; [8]
  MIC: 1000 µg/mL
[2]; [7]
  MIC: 2660 µM
[3]
  IC50: < 36 µM
[3]; Homo sapiens, HEK293, 48 h
  IC50: 19 µM and 7.3 µg/mL
other
  melting point: 56.1 °C

## CCCCNC(=O)[C@H](C(C)C)n1cc[n+](Cc2cccc(C[n+]3ccn([C@@H](C(=O)NCCCC)C(C)C)c3)c2)c1 [Compound 2c]
[1]; [6]
  MIC: 128 µg/mL
[1]; [7]
  MIC: 180 µM
[2]; [8]
  MIC: 1000 µg/mL
[2]; [7]
  MIC: 1440 µM
[3]; Homo sapiens, HEK293, 48 h
  IC50: > 142 µg/mL
other
  melting point: 85 °C

## CCCCCCCCCCCCNC(=O)[C@H](C(C)C)n1cc[n+](Cc2cccc(C[n+]3ccn([C@@H](C(=O)NCCCCCCCCCCCC)C(C)C)c3)c2)c1 [Compound 1c]
[1]; [6]
  MIC: 16 µg/mL
[1]; [7]
  MIC: 19 µM
[2]; [8]
  MIC: 256 µg/mL
[2]; [7]
  MIC: 269 µM
[3]; Homo sapiens, HEK293, 48 h
  IC50: 19 µM and 18 µg/mL
[4]
  bactericidal or bacteriostatic (MBC to MIC ratio equal to or less than four = bactericidal): true bactericidal activity

## CCCCCCCCCCCCNC(=O)[C@H](Cc1ccccc1)n1cc[n+](Cc2ccccc2)c1 [Compound 3b]
[1]; [6]
  MIC: 4 µg/mL
[1]; [7]
  MIC: 7 µM
[2]; [8]
  MIC: 32 µg/mL
[2]; [7]
  MIC: 57 µM
[3]; Homo sapiens, HEK293, 48 h
  IC50: 109 µM and 61 µg/mL
[4]
  bactericidal or bacteriostatic (MBC to MIC ratio equal to or less than four = bactericidal): true bactericidal activity
other
  melting point: 16 °C

From paper PMC7767166, “Imidazole and Imidazolium Antibacterial Drugs Derived from Amino Acids” (Pharmaceuticals, 2020)
